Common to all, as to type: cell-based, SD rats
Assay [1] concerns rat cerebral cortical neurons treated with Aβ(25-35). The experiment in a line: Measurement of neuronal cell death induced by Aβ(25-35) (calcein AM uptake, cell viability). Particulars: 10 μM Aβ(25-35) and Compound 11 100 nM, 8-well culture slide, 4 days; FIG. 2; vs control group. The procedure:
Cerebral cortical neurons of SD rats (embryonic day 18) were primary cultured. The neurons were seeded in a 24-well culture dish at a density of 2.86×10^5 cells/cm^2, and after 3 days, simultaneously treated with 10 μM partial peptide including the 25 to 35-amino acid residue of Aβ (hereinafter called Aβ(25-35)) and each of Compounds 1 to 5 (100 nM). After another 4 days, 6 μM calcein AM was added, the whole was incubated for 40 minutes at 37° C., and the fluorescence intensity at 485 nm was measured so that the uptake of calcein AM into the neurons was calculated to determine the cell viability. The group without the Aβ(25-35) treatment and the administration of any medical agents was defined as a control group, and the group with the Aβ(25-35) treatment but without the administration of any medical agents was defined as a vehicle group.
Separately, the neurons were seeded in an 8-well culture slide at a density of 2.14×10^5 cells/cm^2, and after 5 days, simultaneously treated with 10 μM Aβ(25-35) and Compound 11 (100 nM). After another 4 days, 6 μM calcein AM was added, and the whole was incubated for 40 minutes at 37° C. Then the neurons were fixed, and the fluorescence image was obtained under a fluorescence microscope AX-80. The uptake of calcein AM into the neurons was quantitatively analyzed with an ATTO Densitograph (ATTO, Tokyo, Japan) to determine the cell viability. […]

Assay [2] deals with rat cerebral cortical neurons treated with Aβ(1-42). The experiment in a line: Measurement of dendrite atrophy induced by Aβ(1-42) (MAP2 immunostaining). The note with it: 5 μM Aβ(1-42), after 3 days each of Compounds 5, 11, 21, and 22 (1 μM), another 5 days; FIG. 5; vs control group. The procedure:
Cerebral cortical neurons of SD rats (embryonic day 18) were primary cultured. The neurons were seeded in an 8-well culture slide at a density of 2.6×10^5 cells/cm^2. After 5 days, the neurons were treated with 5 μM Aβ(1-42), and after another 3 days, treated with each of Compounds 5, 11, 21, and 22 (each 1 μM). After another 5 days, immunostaining was carried out. The used primary antibody was a rabbit polyclonal antibody against MAP2 that is as a marker protein of the dendrite (a dilution degree of 500; Chemicon, Temecula, Calif., USA). The used secondary antibody was Alexa Fluor 568 labeled goat anti-rabbit IgG (a dilution degree of 300; Molecular Probes, Carlsbad, Calif., USA). The neurons were observed under a fluorescence microscope AX-80 (Olympus, Tokyo, Japan) and the fluorescence image was obtained. The average length of the dendrites per neuron was measured with Neurocyte Ver. 1.5 (Toyobo, Osaka, Japan). The group without the Aβ(1-42) treatment and the administration of any medical agents was defined as a control group, and the group with the Aβ(1-42) treatment but without the administration of any medical agents was defined as a vehicle group.

The test system is the same in assay [3]. The experiment in a line: Measurement of axon atrophy induced by Aβ(1-42) (phosphorylated neurofilament H immunostaining). Particulars: 5 μM Aβ(1-42), after 3 days each of Compounds 5, 11, 21, and 22 (1 μM), another 5 days; FIG. 6; vs control group. The procedure: Cerebral cortical neurons of SD rats (embryonic day 18) were primary cultured. The neurons were seeded in an 8-well culture slide at a density of 2.6×10^5 cells/cm^2, after 5 days, treated with 5 μM Aβ(1-42), and after another 3 days, treated with each of Compounds 5, 11, 21, and 22 (each 1 μM). After another 5 days, immunostaining was carried out. The used primary antibody was a mouse monoclonal antibody against phosphorylated neurofilament H that is a marker protein of the axon (a dilution degree of 500; Sternberger Monoclonals, MD, USA). The used secondary antibody was Alexa Fluor 488 labeled goat anti-[…] IgG (a dilution degree of 300; Molecular Probes, Carlsbad, Calif., USA). The neurons were observed under a fluorescence microscope AX-80 (Olympus, Tokyo, Japan) and the fluorescence image was obtained. The average length of the axons per neuron was measured with Neurocyte Ver. 1.5 (Toyobo, Osaka, Japan). The group without the Aβ(1-42) treatment and the administration of any medical agents was defined as a control group, and the group with the Aβ(1-42) treatment but without the administration of any medical agents was defined as a vehicle group.

As for `N#CC12CCC3(OCCO3)C3=COC(Cc4ccc(O)cc41)C32` (stereo not drawn) [Compound 11, 9-hydroxy-2,3,5a,10c-tetrahydro-1H,6H-5-oxa-3-oxo-acephenanthrylene-10b-carbonitrile ethylene ketal], the “cell viability (uptake of calcein AM, fluorescence image)” value in assay [1] is listed as “cell viability remarkably higher than that of the control group”.
With `COc1cc2c(cc1O)C1(C#N)CCC3(OCCO3)C3=COC(C2)C31` (stereo not drawn) [Compound 22, 9-hydroxy-8-methoxy-2,3,5a,10c-tetrahydro-1H,6H-5-oxa-3-oxo-acephenanthrylene-10b-carbonitrile ethylene ketal], the “dendrite outgrowth effect (average length of the dendrites per neuron)” value in assay [2] was “dendrite outgrowth effect remarkably higher than that of the control group”. Besides, the “axon outgrowth effect (average length of the axons per neuron)” value in assay [3] is recorded as “axon outgrowth effect remarkably higher than that of the control group”.
